In brackets after ≈: the same amount, converted by molar mass.
Columns and labels:
[1] = Cellular CaCo2 permeability assay from apical to basal (A-B); assay type: in vitro ADME; details: human, Caco-2, read-out: Pe A-B (permeability)
From the text: The permeability in 10^−6 cm/s of compounds of formula (I) have been confirmed for selected example using a cellular CaCo2 permeability assay from apical to basal (A-B): […]

[2] = biological target: T1, PI3K gamma (Homo sapiens, UniProt P48736); experiment: PI3K gamma kinase assay (Kinase-Glo luminescence); assay type: biochemical
T1 construct: His tag (C); made in house; host or cells: baculovirus (pVL1393); Tn5 or TiniPro insect cells; construct from Roger Williams lab, MRC LMB
Outline: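 PI3Kγ (150 nM) reaction run 120 min at room temperature with phosphatidylinositol substrate (10 μg/mL) and ATP (1 μM) in Tris pH 7.5 buffer containing MgCl2, NaCl, CHAPS and DTT. Remaining ATP detected by Kinase-Glo luminescence; 8 concentrations per compound, IC50 from 4-parameter curve fitting.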

[3] = system: S6 Ribosomal Protein phosphorylation Ser235/236 in TSC1 null mouse embryo fibroblast (MEF) cells; experiment: Reverse protein array assay, S6 Ribosomal Protein phosphorylation Ser235/236 in TSC1 null MEF cells; assay type: cell-based; details: 1 h, pS6 ribosomal protein Ser235/236, 60 minutes incubation, read-out: p-S6 IC50
Outline: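 TSC1−/− MEFs, seeded and held ≥20 h at 37 °C/5% CO2, were exposed to 8-step serial compound dilutions (0.02% DMSO final; DMSO vehicle control) for 60 min at 37 °C. Cells were then lysed on ice for 10 min and lysates spotted onto reverse protein array chips.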

[4] = Solubility in the organic solvents PEG400, propyleneglycol and ethanol; assay type: physicochemical; details: organic solvent or mixture
From the text: Compounds of the invention display particularly high solubilities in organic solvents. The compounds of the invention are thus particularly useful for topical administration, e.g. to a mammal such as a human, e.g. to the skin of said mammal. The compounds are thus useful for formulation into compositions suitable for topical administration. Compounds displaying high solubility thus provide an advantage for topical administration over compounds having a lower solubility.
The solubility of certain compounds was determined in the organic solvents PEG400, propyleneglycol and ethanol.

[5] = In vivo penetration into dermis of topically treated pigs (skin PK); details: pig dermis in vivo, topical 0.5% in PG/EtOH 7:3; mean ± SEM, n=8
Experimental: Small skin areas (4 cm^2) on the dorsolateral back of young domestic pigs were treated topically with 0.5% solutions at different time intervals (1-8 hrs) prior to drug level determination. Skin flaps with the treated sites in the centre were dissected and removed. The skin flaps were spread, and heated metal blocks placed on the test sites for 1 minute to induce separation of epidermis from the dermis. After removal of the loosened epidermal sheets, 1 mm thick dermal sheets were prepared from the treated, de-epidermized skin with a dermatome. From these sheets 6 mm punch samples (6 mm Ø) were collected and analysed for test compound concentration by LC/MS. The procedure described was done with careful avoidance of contamination of the dermal samples with compound attached superficially to the epidermis.
AUC means area under the curve, and is a well known term in clinical pharmacology. The AUC value describes the total uptake of the agent in a time interval.

[6] = In vitro skin penetration and permeation, pig skin in static Franz-type diffusion cells; assay type: in vitro ADME; details: 0.5% solution in propylene glycol, 48 hours exposure, mean ± SD of triplicate; for Skin concentration: after removal of stratum corneum; for Permeation rate: receiver
Experimental: The skin penetration/permeation properties of two representative compounds of the present invention were tested as follows:
The compounds were applied as 0.5% solutions in propylene glycol to pig skin mounted in static Franz-type diffusion cells. At the end of a 48 hours exposure time, drug concentrations were measured in the skin (after removal of stratum corneum) and in the receiver.

[7] = absolute ethanol, excipient Ethanol abs.
[8] = propylene glycol, excipient Propyleneglycol

T1 sequence (P48736 144-1102 limits assumed): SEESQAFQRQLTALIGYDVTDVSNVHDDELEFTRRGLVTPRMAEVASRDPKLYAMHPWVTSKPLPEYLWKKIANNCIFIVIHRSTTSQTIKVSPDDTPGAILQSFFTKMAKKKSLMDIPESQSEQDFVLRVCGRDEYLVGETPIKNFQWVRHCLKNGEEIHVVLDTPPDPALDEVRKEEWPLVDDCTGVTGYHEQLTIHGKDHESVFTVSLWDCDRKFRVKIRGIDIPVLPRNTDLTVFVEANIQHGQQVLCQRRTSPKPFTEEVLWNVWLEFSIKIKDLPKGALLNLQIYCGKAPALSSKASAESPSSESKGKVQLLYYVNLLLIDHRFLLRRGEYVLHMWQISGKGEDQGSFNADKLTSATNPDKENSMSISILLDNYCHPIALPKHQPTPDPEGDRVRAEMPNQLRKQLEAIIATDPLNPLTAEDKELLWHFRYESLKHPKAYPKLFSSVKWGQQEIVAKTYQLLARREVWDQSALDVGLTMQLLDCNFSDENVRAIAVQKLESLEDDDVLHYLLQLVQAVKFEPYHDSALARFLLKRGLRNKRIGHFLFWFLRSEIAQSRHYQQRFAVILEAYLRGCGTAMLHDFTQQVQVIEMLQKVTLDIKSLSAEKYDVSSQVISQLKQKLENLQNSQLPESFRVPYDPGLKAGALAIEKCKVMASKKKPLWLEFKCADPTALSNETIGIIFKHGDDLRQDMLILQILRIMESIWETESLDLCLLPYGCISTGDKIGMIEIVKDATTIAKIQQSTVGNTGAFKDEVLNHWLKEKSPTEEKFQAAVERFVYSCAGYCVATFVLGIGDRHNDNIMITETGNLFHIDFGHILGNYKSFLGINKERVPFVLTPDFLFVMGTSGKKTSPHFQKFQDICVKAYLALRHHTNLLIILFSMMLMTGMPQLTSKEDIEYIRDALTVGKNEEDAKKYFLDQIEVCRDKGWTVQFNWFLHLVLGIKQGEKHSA

Structure (SMILES) | Papp A→B [1] [×10⁻⁶ cm/s] | IC50 [2] [nM] | IC50 [3] [nM] | solubility [4, 7] [mg/mL] | solubility ([4]; excipient PEG400) [mg/mL] | solubility [4, 8] [mg/mL] | AUC (0-8 h) in dermis [5] [µg·h/g] | Skin concentration [6] [µg/g] | Permeation rate [6] [ng/cm^2/hr]
COc1ccc(-c2ccc3ncc4c(c3c2)n(-c2cn(C)nc2C)c(=O)n4C)cc1OC [Example 1.8, 8-(3,4-Dimethoxy-phenyl)-1-(1,3-dimethyl-1H-pyrazol-4-yl)-3-methyl-1,3-dihydro-imidazo[4,5-c]quinolin-2-one] | 28.6 | 144 | < 5 |  |  |  |  |  | 
CCOc1ccc(-c2ccc3ncc4c(c3c2)n(-c2cn(CC)nc2C)c(=O)n4C)cn1 [Example 3.5, 8-(6-Ethoxy-pyridin-3-yl)-1-(1-ethyl-3-methyl-1H-pyrazol-4-yl)-3-methyl-1,3-dihydro-imidazo[4,5-c]quinolin-2-one] | 31.2 | 357 | 58 |  |  |  |  |  | 
Cc1nn(C(C)C)cc1-n1c(=O)n(C)c2cnc3ccc(-c4ccc(N(C)C)nc4)cc3c21 [Example 4.1, 8-(6-Dimethylamino-pyridin-3-yl)-1-(1-isopropyl-3-methyl-1H-pyrazol-4-yl)-3-methyl-1,3-dihydro-imidazo[4,5-c]quinolin-2-one] | 35.1 | 407 | 15 | 4.11 (≈ 9.31 mM) | > 20 | > 20 |  |  | 
CCn1cc(-n2c(=O)n(C)c3cnc4ccc(-c5cnc(N(C)C)nc5)cc4c32)c(C)n1 [Example 6.4, 8-(2-Dimethylamino-pyrimidin-5-yl)-1-(1-ethyl-3-methyl-1H-pyrazol-4-yl)-3-methyl-1,3-dihydro-imidazo[4,5-c]quinolin-2-one] | 29.7 |  | 10 |  |  |  |  |  | 
Cc1nn(C)cc1-n1c(=O)n(C)c2cnc3ccc(-c4ccc(CO)nc4)cc3c21 [Example 16.2, 1-(1,3-Dimethyl-1H-pyrazol-4-yl)-8-(6-hydroxymethyl-pyridin-3-yl)-3-methyl-1,3-dihydro-imidazo[4,5-c]quinolin-2-one] | 5.6 | 489 | 181 |  |  |  |  |  | 
CCOc1cc(-c2ccc3ncc4c(c3c2)n(-c2cn(CC)nc2C)c(=O)n4C)ccc1OC [Example 28.1, 8-(3-Ethoxy-4-methoxy-phenyl)-1-(1-ethyl-3-methyl-1H-pyrazol-4-yl)-3-methyl-1,3-dihydro-imidazo[4,5-c]quinolin-2-one] | 18.4 | 75 | < 5 |  |  |  |  |  | 
COCc1cncc(-c2ccc3ncc4c(c3c2)n(-c2cn(C)nc2C)c(=O)n4C)c1 [Example 54.1, 1-(1,3-Dimethyl-1H-pyrazol-4-yl)-8-(5-methoxymethyl-pyridin-3-yl)-3-methyl-1,3-dihydro-imidazo[4,5-c]quinolin-2-one] |  | 157 | 5 |  |  |  |  |  | 
CCOc1cncc(-c2ccc3ncc4c(c3c2)n(-c2cn(C)nc2Cl)c(=O)n4C)c1 [Example 56.4, 1-(3-Chloro-1-methyl-1H-pyrazol-4-yl)-8-(5-ethoxy-pyridin-3-yl)-3-methyl-1,3-dihydro-imidazo[4,5-c]quinolin-2-one] |  | 121 | 1 |  |  |  |  |  | 
Cc1nn(C)cc1-n1c(=O)n(C)c2cnc3ccc(-c4cncc(OC(C)C)c4)cc3c21 [Example 58.1, 1-(1,3-Dimethyl-1H-pyrazol-4-yl)-8-(5-isopropoxy-pyridin-3-yl)-3-methyl-1,3-dihydro-imidazo[4,5-c]quinolin-2-one] | 30.5 | 95 | 3 | > 22 | > 26 | > 24 | 3.7 ± 1.3 | 9.3 ± 6.2 | 0.5 ± 0.3
Cc1nn(C)cc1-n1c(=O)n(C)c2cnc3ccc(-c4cnc5c(c4)nnn5C)cc3c21 [Example 72, 1-(1,3-Dimethyl-1H-pyrazol-4-yl)-3-methyl-8-(3-methyl-3H-[1,2,3]triazolo[4,5-b]pyridin-6-yl)-1,3-dihydro-imidazo[4,5-c]quinolin-2-one] |  | 341 | 58 |  |  |  |  |  | 
Cc1nn(C)cc1-n1c(=O)n(C)c2cnc3ccc(-c4cnc5c(c4)ncn5C)cc3c21 [Example 74, 1-(1,3-Dimethyl-1H-pyrazol-4-yl)-3-methyl-8-(3-methyl-3H-imidazo[4,5-b]pyridin-6-yl)-1,3-dihydro-imidazo[4,5-c]quinolin-2-one] |  | 307 | 23 |  |  |  |  |  | 
Cc1ncc(-c2ccc3ncc4c(c3c2)n(-c2cn(C)nc2C)c(=O)n4C)cc1OC(C)C [Example 84.1, 1-(1,3-Dimethyl-1H-pyrazol-4-yl)-8-(5-isopropoxy-6-methyl-pyridin-3-yl)-3-methyl-1,3-dihydro-imidazo[4,5-c]quinolin-2-one] | 26.7 |  | 2 | > 21 | > 19 | > 20 | 2.8 ± 1.0 | 6.4 ± 3.5 | <0.4
Cc1nn(C)cc1-n1c(=O)n(C)c2cnc3ccc(-c4ccc(OCCO)nc4)cc3c21 [Example 107, 1-(1,3-Dimethyl-1H-pyrazol-4-yl)-8-[6-(2-hydroxy-ethoxy)-pyridin-3-yl]-3-methyl-1,3-dihydro-imidazo[4,5-c]quinolin-2-one] |  | 147 | 46 |  |  |  |  |  | 
CCOc1ccc(-c2ccc3ncc4[nH]c(=O)n(-c5cn(C)nc5C)c4c3c2)cn1 [Example 110, 1-(1,3-Dimethyl-1H-pyrazol-4-yl)-8-(6-ethoxy-pyridin-3-yl)-1,3-dihydro-imidazo[4,5-c]quinolin-2-one] |  | 337 | 78 |  |  |  |  |  | 
CNc1ccc(-c2ccc3ncc4c(c3c2)n(-c2cn(C)nc2C)c(=O)n4C)cn1 [Example 118.2, 1-(1,3-Dimethyl-1H-pyrazol-4-yl)-3-methyl-8-(6-methylamino-pyridin-3-yl)-1,3-dihydro-imidazo[4,5-c]quinolin-2-one] |  | 279 | 1 |  |  |  |  |  | 
CCn1cc(-n2c(=O)n(C)c3cnc4ccc(-c5ccc(NC)nc5)cc4c32)c(C)n1 [Example 118.4, 1-(1-Ethyl-3-methyl-1H-pyrazol-4-yl)-3-methyl-8-(6-methylamino-pyridin-3-yl)-1,3-dihydro-imidazo[4,5-c]quinolin-2-one] | 15.9 |  | 2 |  |  |  |  |  | 
Cc1ncc(-c2ccc3ncc4c(c3c2)n(-c2cn(C)nc2C)c(=O)n4C)cc1OC(CF)CF [Example 189, 1-(1,3-Dimethyl-1H-pyrazol-4-yl)-8-[5-(2-fluoro-1-fluoromethyl-ethoxy)-6-methyl-pyridin-3-yl]-3-methyl-1,3-dihydro-imidazo[4,5-c]quinolin-2-one] | 26.1 |  | 1 |  |  |  |  |  | 
COCc1ncc(-c2ccc3ncc4c(c3c2)n(-c2cn(C)nc2C)c(=O)n4C)cc1OC(C)C [Example 191.1, 1-(1,3-Dimethyl-1H-pyrazol-4-yl)-8-(5-isopropoxy-6-methoxymethyl-pyridin-3-yl)-3-methyl-1,3-dihydro-imidazo[4,5-c]quinolin-2-one] |  |  | 4 | > 24 | > 23 | > 19 |  |  | 
COc1ccc(-c2ccc3ncc4[nH]c(=O)n(-c5cn(C)nc5C)c4c3n2)cc1OC [Example 249, 8-(3,4-dimethoxy-phenyl)-1-(1,3-dimethyl-1H-pyrazol-4-yl)-1,3-dihydro-1,3,5,9-tetraaza-cyclopenta[a]naphthalen-2-one] | 22.1 | 125 | 2 |  |  |  |  |  | 
COc1ccc(-c2ccc3ncc4c(c3n2)n(-c2cn(C)nc2C)c(=O)n4C)cc1OC [Example 250, 8-(3,4-Dimethoxy-phenyl)-1-(1,3-dimethyl-1H-pyrazol-4-yl)-3-methyl-1,3-dihydro-1,3,5,9-tetraaza-cyclopenta[a]naphthalen-2-one] |  | 185 | 13 |  |  |  |  |  | 

— patent US20140005163A1 (NOVARTIS AG, priority 2010, published 2014)
